# Reference: US5939098A, “Cancer treatment with temozolomide” (Schering Corporation, priority 1997, dated 1999)
# How the values were obtained:
# [1] = parameters: species or system patient; conditions: human, in vivo
# Procedure: Prior to this invention it was generally believed that administering temozolomide to a patient having food in their stomach or to a patient who consumed food too soon before or after administering of the temozolomide would interfere with the bioiavailability of the temozolomide. A fasting of about 8 hours, before administering of temozolomide and 4 hours after receiving temozolomide was believed necessary. Since two twelve-hour fasting periods per day would obviously be unacceptable, it was believed that temozolomide could be administered a maximum of once per day. […] Therefore long fasting periods before and after administration of temozolomide are not necessary. Dosing with temozolomide more than once per day may improve the effectiveness of the treatment. This is so because increasing the frequency of dosing may deplete the O^6 -aklylguanine DNA alkyltransferase more effectively and maintain the depletion of this repair enzyme, resulting therefore in better effectiveness of the drug.
# [2] = side effects of temozolomide administration; type: in vivo, patient; conditions: can be alleviated by an anti-emetic
# Procedure: It is preferred that the anti-emetic Ondansetron be given p.o. in a dose of about 8 mg about 30 minutes before temozolomide administration. Of course other anti-emetics such as Hasaldol, Benadryl, and Ativan may also be used as needed.
# advanced melanoma [3] = conditions: patients having advanced melanoma; Newlands ES, et al. Br J Cancer 65 (2), 1992; cited from earlier work
# advanced melanoma [4] = conditions: patients with advanced melanoma; Journal of Clinical Oncology, Vol 13, No. 4, 1995, pp 910-913; cited from earlier work
smiles,measurement,setting,value
"Cn1nnc2c(C(N)=O)ncn2c1=O [temozolomide, 3,4-dihydro-3-methyl-4-oxoimidazo-[5,1-d]1,2,3,4-tetrazin-8-carboximide]",Area Under Curve (AUC) for those fed as % of AUC for those fasted,[1],about 90%
same,"common, but tolerable side effect",[2],nausea and vomiting
same,"clinical responses achieved, % of patients",advanced melanoma [3],17%
same,"clinical response achieved, % of patients",advanced melanoma [4],21%
